Literature values as cited in patent US11331258B2, “Method for dyeing keratinous material, comprising the use of an organosilicon compound, an oligoalkylsiloxane and a dyeing compound” (Henkel AG & Co. KGaA, priority 2019, dated 2022).
Like-named read-outs stand apart in the source and are kept apart here.

| solubility in water (25° C.) | solubility in water (at about 25° C.) | Structure (SMILES) |
| --- | --- | --- |
| more than 20 % by weight |  | CCN(Cc1cccc(S(=O)(=O)[O-])c1)c1ccc(C(=C2C=CC(=[N+](CC)Cc3cccc(S(=O)(=O)[O-])c3)C=C2)c2ccccc2S(=O)(=O)[O-])cc1.[Na+].[Na+] [Acid Blue 9] |
| about 2.5 g/L |  | Nc1cc(S(=O)(=O)[O-])cc2cc(S(=O)(=O)[O-])c(N=Nc3ccccc3)c(O)c12.[Na+].[Na+] [Acid Red 33, diantrium salt of 5-amino-4-hydroxy-3-(phenylazo)-naphthalene-2,7-disulphonate] |
|  | highly soluble | O=C([O-])C1=NN(c2ccc(S(=O)(=O)[O-])cc2)C(=O)C1N=Nc1ccc(S(=O)(=O)[O-])cc1.[Na+].[Na+].[Na+] (stereo not shown) [Acid Yellow 23, trisodium salt of 4,5-dihydro-5-oxo-1-(4-sulfophenyl)-4-((4-sulfophenyl)azo)-1H-pyrazole-3-carboxylic acid] |

| Structure (SMILES) | solubility in water (25° C.) | solubility in water (at about 25° C.) |
| --- | --- | --- |
| O=S(=O)([O-])c1ccc(N=Nc2c(O)ccc3ccccc23)cc1.[Na+] [Acid Orange 7, sodium salt of 4-[(2-hydroxy-1-naphthyl)azo]benzene sulphonate] | more than 7 g/L |  |
